Consider 21 compounds from US10954214B2 (Janssen Pharmaceutica NV, priority 2016, dated 2021).

Some results are limits rather than exact numbers.

The subject of assay [1] is IL10 secretion by TMD8 ABC-DLBCL cells. Kind of assay: Human IL10 Mesoscale assay (TMD-8). The following applies: TMD-8 cells, 24 h. Type of assay: cell-based. Put shortly: (§1)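 TMD8 or OCI-LY3 cells (100,000/well) were exposed to compounds in 9 twofold dilutions from 15 μM to 58.6 nM (0.3% DMSO) for 24 h at 37 °C. Supernatant IL6 and IL10 were quantified by MSD electrochemiluminescence immunoassay. DMSO defined maximum signal and BTK inhibitor RN486 (30 nM–131 pM) defined maximum inhibition.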

For assay [2], the target named is full-length MALT1 protein (Strep-MALT1(1-824)-His) (Homo sapiens (Human), UniProt Q9UDY8). As to the kind of experiment: MALT1 Biochemical Protease Assay (Ac-LRSR-AMC substrate). The settings on record: 10 nM FL MALT1, 200 μM Ac-LRSR-AMC, 4 h at RT; read-out: MALT1_Biochemical activity (Ac-LRSR-amc) IC50. The method in brief: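 Full-length MALT1 pre-incubated with compounds (30 μM to 0.5 nM, 11 threefold steps) for 50 min at RT. After Ac-LRSR-AMC was added, the reaction ran 4 h at RT and AMC fluorescence was read. IC50 and Hill slope from curve fitting against no-enzyme and no-compound controls.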
full-length MALT1 protein (Strep-MALT1(1-824)-His), sequence (Q9UDY8 whole entry): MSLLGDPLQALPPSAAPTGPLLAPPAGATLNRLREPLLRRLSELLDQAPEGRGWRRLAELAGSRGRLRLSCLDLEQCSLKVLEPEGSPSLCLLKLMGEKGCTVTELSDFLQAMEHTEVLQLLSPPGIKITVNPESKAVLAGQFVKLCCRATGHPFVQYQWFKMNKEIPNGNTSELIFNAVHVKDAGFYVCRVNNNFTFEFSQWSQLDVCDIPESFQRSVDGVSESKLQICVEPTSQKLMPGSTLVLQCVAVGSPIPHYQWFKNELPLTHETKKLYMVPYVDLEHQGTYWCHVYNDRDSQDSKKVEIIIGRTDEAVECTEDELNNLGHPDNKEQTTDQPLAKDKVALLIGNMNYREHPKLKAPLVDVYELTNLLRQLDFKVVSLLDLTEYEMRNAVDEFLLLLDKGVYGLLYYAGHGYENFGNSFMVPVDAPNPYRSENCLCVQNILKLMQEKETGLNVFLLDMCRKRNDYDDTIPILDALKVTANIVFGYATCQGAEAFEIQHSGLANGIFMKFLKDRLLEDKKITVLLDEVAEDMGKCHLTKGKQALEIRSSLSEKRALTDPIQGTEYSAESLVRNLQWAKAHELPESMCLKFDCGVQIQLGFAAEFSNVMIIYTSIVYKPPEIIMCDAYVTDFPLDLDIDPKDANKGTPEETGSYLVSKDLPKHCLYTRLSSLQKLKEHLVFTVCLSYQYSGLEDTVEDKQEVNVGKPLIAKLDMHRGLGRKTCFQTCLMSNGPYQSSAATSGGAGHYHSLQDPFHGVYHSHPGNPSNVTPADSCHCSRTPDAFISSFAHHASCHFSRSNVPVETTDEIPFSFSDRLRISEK

In assay [3] the test system is IL6 secretion by TMD8 ABC-DLBCL cells. As to the kind of experiment: Human IL6 Mesoscale assay (TMD-8). It is filed as cell-based. The settings on record: TMD-8 cells, 24 h. The method in brief:
as §1

For the compound `Cc1nc(-n2nccn2)c(Cl)cc1NC(=O)c1cnn(-c2cnc(C(N)=O)c3sccc23)c1C(F)(F)F` [Cpd 393, 4-(4-((5-chloro-2-methyl-6-(2H-1,2,3-triazol-2-yl)pyridin-3-yl)carbamoyl)-5-(trifluoromethyl)-1H-pyrazol-1-yl)thieno[2,3-c]pyridine-7-carboxamide], the concentration for half-maximal inhibition (IC50) (as a rule, the concentration at which inhibition is half-maximal) in assay [1] (Homo sapiens, TMD8) worked out at 126 nM; in assay [2], 12 nM; in assay [3] (Homo sapiens, TMD8) it was 245 nM.
The like results for `O=C(Nc1cnc(-n2nccn2)c(Cl)c1)c1cnn(-c2cccc3nc(C(F)F)ccc23)c1C(F)(F)F` [Cpd 395, N-(5-chloro-6-(2H-1,2,3-triazol-2-yl)pyridin-3-yl)-1-(2-(difluoromethyl)quinolin-5-yl)-5-(trifluoromethyl)-1H-pyrazole-4-carboxamide] were, in that order, 28 nM, 3470 nM and 72 nM.
In the same order, the values of `O=C(Nc1cnc(-n2nccn2)c(Cl)c1)c1cnn(-c2cccc3nccc(C(F)F)c23)c1C(F)(F)F` [Cpd 396, N-(5-chloro-6-(2H-1,2,3-triazol-2-yl)pyridin-3-yl)-1-(4-(difluoromethyl)quinolin-5-yl)-5-(trifluoromethyl)-1H-pyrazole-4-carboxamide] are 39 nM, 447 nM and 51 nM.
The like results for `O=C(Nc1cnc(-n2nccn2)c(Cl)c1)c1cnn(-c2ccc(C(F)F)c3ncccc23)c1C(F)(F)F` [Cpd 397, N-(5-chloro-6-(2H-1,2,3-triazol-2-yl)pyridin-3-yl)-1-(8-(difluoromethyl)quinolin-5-yl)-5-(trifluoromethyl)-1H-pyrazole-4-carboxamide] were, in that order, 17 nM, 214 nM and 107 nM.
Turning to `O=C(Nc1cnc(-n2nccn2)c(Cl)c1)c1cnn(-c2cnc(C(F)F)c3sccc23)c1C(F)(F)F` [Cpd 398, N-(5-chloro-6-(2H-1,2,3-triazol-2-yl)pyridin-3-yl)-1-(7-(difluoromethyl)thieno[2,3-c]pyridin-4-yl)-5-(trifluoromethyl)-1H-pyrazole-4-carboxamide], the IC50 in assay [1] (Homo sapiens, TMD8) worked out at 56 nM; in assay [2] it was 60 nM; in assay [3] (Homo sapiens, TMD8), 98 nM.
Take `O=C(Nc1cnc(-n2nccn2)c(Cl)c1)c1cnn(-c2cncc3sc(C(F)F)cc23)c1C(F)(F)F` [Cpd 399, N-(5-chloro-6-(2H-1,2,3-triazol-2-yl)pyridin-3-yl)-1-(2-(difluoromethyl)thieno[2,3-c]pyridin-4-yl)-5-(trifluoromethyl)-1H-pyrazole-4-carboxamide]: the half-inhibitory concentration (IC50) in assay [1] (Homo sapiens, TMD8) is 49 nM; in assay [2] it was 316 nM; in assay [3] (Homo sapiens, TMD8), 52 nM.
In the same order, the values of `O=C(Nc1cnc(-n2nccn2)c(Cl)c1)c1cnn(-c2cccc3c(C(F)F)nccc23)c1C(F)(F)F` [Cpd 400, N-(5-chloro-6-(2H-1,2,3-triazol-2-yl)pyridin-3-yl)-1-(1-(difluoromethyl)isoquinolin-5-yl)-5-(trifluoromethyl)-1H-pyrazole-4-carboxamide] are 47 nM, 209 nM and 126 nM.
In the same order, the values of `O=C(Nc1cnc(-n2nccn2)c(Cl)c1)c1cnn(-c2cc(C(F)F)nc3ccccc23)c1C(F)(F)F` [Cpd 401, N-(5-chloro-6-(2H-1,2,3-triazol-2-yl)pyridin-3-yl)-1-(2-(difluoromethyl)quinolin-4-yl)-5-(trifluoromethyl)-1H-pyrazole-4-carboxamide] are 132 nM, 56 nM and 331 nM.
In the same order, the values of `CC(F)(F)c1ncc(-n2ncc(C(=O)Nc3cnc(-n4nccn4)c(Cl)c3)c2C(F)(F)F)c2ccccc12` [Cpd 402, N-(5-chloro-6-(2H-1,2,3-triazol-2-yl)pyridin-3-yl)-1-(1-(1,1-difluoroethyl)isoquinolin-4-yl)-5-(trifluoromethyl)-1H-pyrazole-4-carboxamide] are 85 nM, 178 nM and 200 nM.
On to `O=C(Nc1cnc(-n2nccn2)c(Cl)c1)c1cnn(-c2cnc(C3CNC3)c3ccccc23)c1C(F)(F)F` [Cpd 403, 1-(1-(azetidin-3-yl)isoquinolin-4-yl)-N-(5-chloro-6-(2H-1,2,3-triazol-2-yl)pyridin-3-yl)-5-(trifluoromethyl)-1H-pyrazole-4-carboxamide], for which the IC50 in assay [1] (Homo sapiens, TMD8) was found to be 112 nM; in assay [2], 871 nM; in assay [3] (Homo sapiens, TMD8), 105 nM.
The like results for `COCc1ncc(-n2ncc(C(=O)Nc3cnc(-n4nccn4)c(Cl)c3)c2C(F)(F)F)c2ccccc12` [Cpd 404, N-(5-chloro-6-(2H-1,2,3-triazol-2-yl)pyridin-3-yl)-1-(1-(methoxymethyl)isoquinolin-4-yl)-5-(trifluoromethyl)-1H-pyrazole-4-carboxamide] were, in that order, 2630 nM, 91 nM and 912 nM.
Turning to `O=C(Nc1cnc(-n2nccn2)c(Cl)c1)c1cnn(-c2c[n+]([O-])cc3ccccc23)c1C(F)(F)F` [Cpd 406, 4-(4-((5-chloro-6-(2H-1,2,3-triazol-2-yl)pyridin-3-yl)carbamoyl)-5-(trifluoromethyl)-1H-pyrazol-1-yl)isoquinoline 2-oxide], the IC50 in assay [1] (Homo sapiens, TMD8) was determined as 200 nM; in assay [2] it was 76 nM; in assay [3] (Homo sapiens, TMD8) it was 224 nM.
The like results for `N#Cc1ccc2c(-n3ncc(C(=O)Nc4cnc(-n5nccn5)c(Cl)c4)c3C(F)(F)F)cccc2n1` [Cpd 413, N-(5-chloro-6-(2H-1,2,3-triazol-2-yl)pyridin-3-yl)-1-(2-cyanoquinolin-5-yl)-5-(trifluoromethyl)-1H-pyrazole-4-carboxamide] were, in that order, 380 nM, 288 nM and > 1510 nM.
In the case of `N#Cc1ncc(-n2ncc(C(=O)Nc3cnc(-n4nccn4)c(Cl)c3)c2C(F)(F)F)c2ccccc12` [Cpd 414, N-(5-chloro-6-(2H-1,2,3-triazol-2-yl)pyridin-3-yl)-1-(1-cyanoisoquinolin-4-yl)-5-(trifluoromethyl)-1H-pyrazole-4-carboxamide], the concentration for half-maximal inhibition (IC50) was 955 nM in assay [1] (Homo sapiens, TMD8); 19 nM in assay [2]; > 15100 nM in assay [3] (Homo sapiens, TMD8).
In the same order, the values of `N#Cc1ncc(-n2ncc(C(=O)Nc3cnc(-n4nccn4)c(Cl)c3)c2C(F)(F)F)c2ccsc12` [Cpd 415, N-(5-chloro-6-(2H-1,2,3-triazol-2-yl)pyridin-3-yl)-1-(7-cyanothieno[2,3-c]pyridin-4-yl)-5-(trifluoromethyl)-1H-pyrazole-4-carboxamide] are 93 nM, 54 nM and 95 nM.
The like results for `Cc1nc(-n2nccn2)c(Cl)cc1NC(=O)c1cnn(-c2cnc(C#N)c3sccc23)c1C(F)(F)F` [Cpd 416, N-(5-chloro-2-methyl-6-(2H-1,2,3-triazol-2-yl)pyridin-3-yl)-1-(7-cyanothieno[2,3-c]pyridin-4-yl)-5-(trifluoromethyl)-1H-pyrazole-4-carboxamide] were, in that order, > 15100 nM, 2570 nM and > 15100 nM.
As for `Cc1nc(-n2nccn2)c(Cl)cc1NC(=O)c1cnn(-c2cnc(Cl)c3sccc23)c1C(F)(F)F` [Cpd 426, N-(5-chloro-2-methyl-6-(2H-1,2,3-triazol-2-yl)pyridin-3-yl)-1-(7-chlorothieno[2,3-c]pyridin-4-yl)-5-(trifluoromethyl)-1H-pyrazole-4-carboxamide], the half-inhibitory concentration (IC50) in assay [1] (Homo sapiens, TMD8) was 60 nM; in assay [2] it was 13 nM; in assay [3] (Homo sapiens, TMD8), 91 nM.
As for `COc1ncc(NC(=O)c2cnn(-c3cccc4c(=O)[nH]ccc34)c2C(F)(F)F)cc1C#N` [Cpd 428, N-(5-cyano-6-methoxypyridin-3-yl)-1-(1-oxo-1,2-dihydroisoquinolin-5-yl)-5-(trifluoromethyl)-1H-pyrazole-4-carboxamide], the half-inhibitory concentration (IC50) in assay [1] (Homo sapiens, TMD8) is 240 nM; in assay [2], 11 nM; in assay [3] (Homo sapiens, TMD8), 550 nM.
`O=C(Nc1cnc(-n2nccn2)c(Cl)c1)c1cnn(-c2cnc(N3CC(O)C3)c3sccc23)c1C(F)(F)F` [Cpd 430, N-(5-chloro-6-(2H-1,2,3-triazol-2-yl)pyridin-3-yl)-1-(7-(3-hydroxyazetidin-1-yl)thieno[2,3-c]pyridin-4-yl)-5-(trifluoromethyl)-1H-pyrazole-4-carboxamide]: the half-inhibitory concentration (IC50) in assay [1] (Homo sapiens, TMD8) is 204 nM; in assay [2], 13 nM; in assay [3] (Homo sapiens, TMD8), > 3020 nM.
For the compound `O=C(Nc1cnc(-n2nccn2)c(Cl)c1)c1cnn(-c2cnc(N3CC[C@@H](O)C3)c3sccc23)c1C(F)(F)F` [Cpd 432, (R)—N-(5-chloro-6-(2H-1,2,3-triazol-2-yl)pyridin-3-yl)-1-(7-(3-hydroxypyrrolidin-1-yl)thieno[2,3-c]pyridin-4-yl)-5-(trifluoromethyl)-1H-pyrazole-4-carboxamide], the 50% inhibitory concentration (IC50) in assay [1] (Homo sapiens, TMD8) was 363 nM; in assay [2], 98 nM; in assay [3] (Homo sapiens, TMD8) it was 933 nM.
On to “N-(5-chloro-6-(4-methyl-2H-1,2,3-triazol-2-yl)pyridin-3-yl)-1-(quinolin-5-yl)-5-(trifluoromethyl)-1H-pyrazole-4-carboxamide [Cpd 304]”, for which the concentration for half-maximal inhibition (IC50) worked out at 3240 nM in assay [1], 62 nM in assay [2] and 3310 nM in assay [3].
